ChEMBL document CHEMBL4420075, “Seriniquinones, melanoma-specific anticancer agents” (2016)
Each block holds one compound with its values, some of them ahead of it. Calls of active or inactive are those of the source. The rule behind the calls is not given here.

Experiments:
HCT-116 [1] = test: Induction of autophagy in human HCT116 cells assessed as increase in of LC3A-II level at 17 uM incubated for 24 hrs by Western blot analysis; assay type: functional, cell-based
HCT-116 [2] = test: Induction of autophagy in human HCT116 cells assessed as increase in of LC3B-II level at 17 uM incubated for 24 hrs by Western blot analysis; assay type: functional, cell-based
Homo sapiens [3] = species on record: Homo sapiens; test: Binding affinity to actin in human HCT116 cells at 50 uM incubated for 8 hrs by LC-MS/MS analysis; assay type: cell-based
[4] = molecular target: Glyceraldehyde-3-phosphate dehydrogenase (Homo sapiens) (UniProt P04406); test: Binding affinity to GADPH in human HCT116 cells at 50 uM incubated for 8 hrs by LC-MS/MS analysis; assay type: cell-based
[5] = Drug accumulation in human MALME-3M cells assessed as sub-cellular localization in autophagosomes measured after 6 hrs by dansyl-cadaverine based confocal microscopy; assay type: ADME, subcellular, Autophagosome
[6] = Drug accumulation in human HCT116 cells assessed as sub-cellular localization in autophagosomes measured after 6 hrs by dansyl-cadaverine based confocal microscopy; assay type: ADME, subcellular, Autophagosome; details: hct-116, 6 h
Dermcidin (Homo sapiens) [7] = molecular target: T1, Dermcidin (Homo sapiens) (UniProt P81605); test: Binding affinity to dermcidin in human HCT116 cell lysates at 3 to 30 uM incubated for 8 hrs by anti-IAF mAb based immunoprecipitation assay; assay type: subcellular; details: Lysate
T1 sequence (whole entry): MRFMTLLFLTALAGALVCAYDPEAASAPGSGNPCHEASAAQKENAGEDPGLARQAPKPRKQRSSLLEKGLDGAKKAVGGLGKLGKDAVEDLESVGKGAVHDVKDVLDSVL

[8] = molecular target: Glyceraldehyde-3-phosphate dehydrogenase (Homo sapiens) (UniProt P04406); test: Covalent binding affinity to GADPH in human HCT116 cell lysates at 30 uM incubated for 8 hrs by Western blot analysis; assay type: subcellular; details: Lysate
Dermcidin (Homo sapiens) [9] = molecular target: T1, Dermcidin (Homo sapiens); test: Binding affinity to dermcidin in human HCT116 cells at 50 uM incubated for 8 hrs by anti-IAF mAb based immunoprecipitation assay; assay type: cell-based
[10] = Drug accumulation in human HCT116 cells assessed as sub-cellular localization in endoplasmic reticulum measured up to 9 hrs by ER-tracker-blue based confocal microscopy; assay type: ADME, subcellular; details: hct-116, 9 h
[11] = Drug accumulation in human MALME-3M cells assessed as sub-cellular localization in endoplasmic reticulum measured up to 9 hrs by ER-tracker-blue based confocal microscopy; assay type: ADME, subcellular
Dermcidin (Homo sapiens) [12] = molecular target: T1, Dermcidin (Homo sapiens); test: Binding affinity to dermcidin in human HCT116 cells at 50 uM incubated for 8 hrs by LC-MS/MS analysis; assay type: cell-based
Homo sapiens [13] = species on record: Homo sapiens; test: Binding affinity to HSP70 in human HCT116 cells at 50 uM incubated for 8 hrs by LC-MS/MS analysis; assay type: cell-based
Dermcidin (Homo sapiens) [14] = molecular target: T1, Dermcidin (Homo sapiens); test: Covalent binding affinity to dermcidin in human HCT116 cell lysates at 30 uM incubated for 8 hrs by Western blot analysis; assay type: subcellular; details: Lysate
HCT-116 [15] = test: Induction of cell cycle arrest in human HCT116 cells assessed as accumulation at S phase at 0.3 to 30 uM incubated for 18 to 24 hrs by propidium iodide staining based assay; assay type: functional
HCT-116 [16] = test: Induction of autophagy in human HCT116 cells assessed as increase in of LC3B-II level incubated for 24 hrs by Western blot analysis; assay type: functional, cell-based
[17] = Drug accumulation in human MALME-3M cells assessed as sub-cellular localization at 30 uM incubated for 1 hr by DAPI staining based; assay type: ADME, cell-based
HCT-116 [18] = test: Induction of apoptosis in human HCT116 cells assessed as induction of caspase-3 cleavage at 3 to 30 uM incubated for 24 hrs by Western blot analysis; assay type: functional, cell-based
HCT-116 [19] = test: Induction of apoptosis in human HCT116 cells assessed as induction of caspase-7 cleavage at 3 to 30 uM incubated for 24 hrs by Western blot analysis; assay type: functional, cell-based
[20] = Drug accumulation in human PC3 cells assessed as sub-cellular localization in endoplasmic reticulum at 30 uM incubated for 1 hr by time course imaging assay; assay type: ADME, subcellular; details: pc-3, 1 h
[21] = Drug accumulation in human HCT8 cells assessed as sub-cellular localization at 30 uM incubated for 1 hr by DAPI staining based; assay type: ADME, cell-based; details: hct-8, 1 h
HCT-116 [22] = test: Reduction in cyclin D1 protein expression in human HCT116 cells at 3 to 30 uM incubated for 24 hrs by Western blot analysis; assay type: functional, cell-based
[23] = Drug accumulation in human PC3M cells assessed as sub-cellular localization at 30 uM incubated for 1 hr by DAPI staining based; assay type: ADME, cell-based; details: pc-3m
HCT-116 [24] = test: Induction of apoptosis in human HCT116 cells assessed as induction of PARP cleavage at 3 to 30 uM incubated for 24 hrs by Western blot analysis; assay type: functional, cell-based
HCT-116 [25] = test: Induction of autophagy in human HCT116 cells assessed as increase in of LC3A-II level incubated for 24 hrs by Western blot analysis; assay type: functional, cell-based
[26] = Drug accumulation in human SF295 cells assessed as sub-cellular localization at 30 uM incubated for 1 hr by DAPI staining based; assay type: ADME, cell-based; details: sf-295, 1 h
HCT-116 [27] = test: Induction of DNA fragmentation in human HCT116 cells at 0.3 to 30 uM incubated for 24 hrs by FACS analysis; assay type: functional, cell-based
HCT-116 [28] = test: Reduction in cyclin D3 protein expression in human HCT116 cells at 3 to 30 uM incubated for 24 hrs by Western blot analysis; assay type: functional, cell-based
PC-3 = test: Induction of auto-phagocytosis in human PC3 cells at 30 uM incubated for 1 hr by time course imaging assay; assay type: functional, cell-based
HCT-116 [29] = test: Induction of apoptosis in human HCT116 cells assessed as induction of caspase-9 cleavage at 3 to 30 uM incubated for 24 hrs by Western blot analysis; assay type: functional, cell-based
[30] = Drug accumulation in human HCT116 cells assessed as sub-cellular localization at 5 uM incubated for 1 hr by DAPI staining based; assay type: ADME, cell-based; details: hct-116, 1 h
Dermcidin (Homo sapiens) [31] = molecular target: T1, Dermcidin (Homo sapiens); test: Covalent binding affinity to DCD-1L (unknown origin) at 50 uM incubated for 24 hrs by denatured SDS-PAGE gel electrophoresis
HCT-116 [32] = test: Reduction in cyclin D2 protein expression in human HCT116 cells at 3 to 30 uM incubated for 24 hrs by Western blot analysis; assay type: functional, cell-based

Chain of Glyceraldehyde-3-phosphate dehydrogenase (Homo sapiens) (P04406 2-335 limits assumed): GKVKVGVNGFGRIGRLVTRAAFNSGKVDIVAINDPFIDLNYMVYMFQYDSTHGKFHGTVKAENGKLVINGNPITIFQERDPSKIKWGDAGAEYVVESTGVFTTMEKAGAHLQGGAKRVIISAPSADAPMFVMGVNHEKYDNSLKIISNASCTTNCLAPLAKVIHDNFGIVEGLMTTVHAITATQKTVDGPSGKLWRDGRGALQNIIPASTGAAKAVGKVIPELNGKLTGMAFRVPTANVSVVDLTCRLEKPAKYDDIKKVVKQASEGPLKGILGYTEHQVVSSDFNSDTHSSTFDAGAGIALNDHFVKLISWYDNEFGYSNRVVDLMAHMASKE

Compound: COc1cc([C@@H]2c3cc4c(cc3[C@@H](O[C@@H]3O[C@@H]5CO[C@@H](C)O[C@H]5[C@H](O)[C@H]3O)[C@H]3COC(=O)[C@H]23)OCO4)cc(OC)c1O
- Activity (HCT-116 [1]): Active
- Activity (HCT-116 [2]): Active

- Activity [4]: Active
- Drug uptake [5]: Active
- Drug uptake [6]: Active
- Activity (Dermcidin (Homo sapiens) [7]): Active
- Activity [8]: Active
- Activity (Dermcidin (Homo sapiens) [9]): Active
- Drug uptake [10]: Active
- Drug uptake [11]: Active
- Activity (Dermcidin (Homo sapiens) [12]): Active
- Activity (Dermcidin (Homo sapiens) [14]): Active
Compound: CN(C)c1ccc2c(CC(=O)NCCCCCCNC(=O)CCc3ccc4c(=O)c5c(sc6c(=O)c7ccccc7c(=O)c65)c(=O)c4c3)cc(=O)oc2c1
- Activity (Homo sapiens [3]): Active
- Activity (Homo sapiens [13]): Active

- Drug uptake [17]: Active
- Drug uptake [5]: Active
- Drug uptake [6]: Active
- Drug uptake [20]: Active
- Drug uptake [21]: Active
- Drug uptake [23]: Active
- Drug uptake [10]: Active
- Drug uptake [26]: Active
- Drug uptake [11]: Active
- Drug uptake [30]: Active
- Activity (Dermcidin (Homo sapiens) [31]): Active
Compound: O=c1c2ccccc2c(=O)c2c1sc1c(=O)c3ccccc3c(=O)c12
- Activity (HCT-116 [15]): Dose-dependent effect
- Activity (HCT-116 [16]): Dose-dependent effect
- Activity (HCT-116 [18]): Active
- Activity (HCT-116 [19]): Active
- Activity (HCT-116 [22]): Active
- Activity (HCT-116 [24]): Active
- Activity (HCT-116 [25]): Dose-dependent effect
- Activity (HCT-116 [27]): Dose-dependent effect
- Activity (HCT-116 [28]): Active
- Activity (PC-3): Active
- Activity (HCT-116 [29]): Active
- Activity (HCT-116 [32]): Active
